29 compounds from ChEMBL document CHEMBL1146710, “Discovery of a novel series of DHODH inhibitors by a docking procedure and QSAR refinement” (Bioorg Med Chem Lett, 2004) can be followed below.

pIC50: −log10 of the molar value.

Sequence of Dihydroorotate dehydrogenase (quinone), mitochondrial (Q02127 whole entry): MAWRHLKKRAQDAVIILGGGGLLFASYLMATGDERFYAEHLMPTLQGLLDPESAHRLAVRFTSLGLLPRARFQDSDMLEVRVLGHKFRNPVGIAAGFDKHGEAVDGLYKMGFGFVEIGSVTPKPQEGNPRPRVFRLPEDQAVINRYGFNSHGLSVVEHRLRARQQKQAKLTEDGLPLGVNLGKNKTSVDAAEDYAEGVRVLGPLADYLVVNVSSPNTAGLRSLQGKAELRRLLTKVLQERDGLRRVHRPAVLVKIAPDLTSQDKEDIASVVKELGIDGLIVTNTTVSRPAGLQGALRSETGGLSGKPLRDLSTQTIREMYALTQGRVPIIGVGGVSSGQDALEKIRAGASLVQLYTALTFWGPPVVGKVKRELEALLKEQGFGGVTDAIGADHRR

The assay addresses Dihydroorotate dehydrogenase (quinone), mitochondrial (Homo sapiens, UniProt Q02127).
Description: In vitro inhibitory activity against human dihydroorotate dehydrogenase (DHODH)
Consider `CC(C)(C)c1ccc(-c2ccc(NC(=O)C3=C(C(=O)O)CCC3)cc2Cl)cc1`, for which the pIC50 is 7.10.

As to `CN(C)c1ccc(-c2ccc(NC(=O)C3=C(C(=O)O)CCC3)cc2Cl)cc1`, the pIC50 is 7.30.

`COc1cccc(-c2ccc(NC(=O)C3=C(C(=O)O)CCC3)c(OC)c2)c1` had a negative logarithm of the IC50 (pIC50) of 6.77.

In turn, `O=C(O)C1=C(C(=O)Nc2ccc(-c3cccc(OC(F)(F)F)c3)cc2[N+](=O)[O-])CCC1` had a pIC50 of 6.41.

`O=C(O)C1=C(C(=O)Nc2ccc(-c3ccc(Br)cc3)cc2F)CCC1` had a pIC50 of 6.13.

`COc1cc(-c2ccccc2Cl)ccc1NC(=O)C1=C(C(=O)O)CCC1` showed a pIC50 of 6.65.

Turning to `O=C(O)C1=C(C(=O)Nc2c(F)cc(-c3cccc(OC(F)(F)F)c3)cc2F)CCC1`, the pIC50 is 7.48.

`O=C(O)C1=C(C(=O)Nc2ccc(-c3cccc(OC(F)(F)F)c3)cc2Cl)CCC1` had a pIC50 of 6.54.

The compound `COc1ccccc1-c1c(F)c(F)c(NC(=O)C2=C(C(=O)O)CCC2)c(F)c1F` had a pIC50 of 8.10.

In turn, `CN(C)c1ccc(-c2cc(F)c(NC(=O)C3=C(C(=O)O)CCC3)c(F)c2)cc1` showed a pIC50 of 6.21.

`COc1ccc(-c2ccc(NC(=O)C3=C(C(=O)O)CCC3)c(Cl)c2)cc1` showed a pIC50 of 5.08.

On to `COc1ccc(-c2cc(F)c(NC(=O)C3=C(C(=O)O)CCC3)c(F)c2)c(OC)c1`, for which the pIC50 is 7.05.

In turn, `O=C(O)C1=C(C(=O)Nc2ccc(-c3cccc(OC(F)(F)F)c3)c(Cl)c2)CCC1` had a pIC50 of 7.70.

With `O=C(O)C1=C(C(=O)Nc2ccc(-c3ccccc3)cc2)CCC1`, the pIC50 is 6.39.

`COc1ccccc1-c1ccc(NC(=O)C2=C(C(=O)O)CCC2)c(Cl)c1`: the pIC50 was 6.51.

`O=C(O)C1=C(C(=O)Nc2ccc(-c3ccc(Br)cc3)c(Cl)c2)CCC1` had a pIC50 of 7.15.

Turning to `O=C(O)C1=C(C(=O)Nc2c(F)cc(-c3ccccc3F)cc2F)CCC1`, the pIC50 is 7.35.

In turn, `O=C(O)C1=C(C(=O)Nc2ccc(-c3ccc(OC(F)(F)F)cc3)cc2F)CCC1` had a pIC50 of 5.24.

`O=C(O)C1=C(C(=O)Nc2ccc(-c3ccc(Br)cc3)cc2Cl)CCC1` gave a pIC50 of 5.54.

As for `O=C(O)C1=C(C(=O)Nc2ccc(-c3cccc(O)c3)cc2F)CCC1`, the pIC50 is 6.21.

`O=C(O)C1=C(C(=O)Nc2c(F)cc(-c3ccccc3Cl)cc2F)CCC1` gave a pIC50 of 7.74.

Turning to `CCOc1cccc(-c2cc(F)c(NC(=O)C3=C(C(=O)O)CCC3)c(F)c2)c1`, the pIC50 is 7.77.

`O=C(O)C1=C(C(=O)Nc2ccc(-c3cccc4ccccc34)cc2C(F)(F)F)CCC1` showed a pIC50 of 6.74.

As to `O=C(O)C1=C(C(=O)Nc2c(F)c(F)c(-c3cccc(OC(F)(F)F)c3)c(F)c2F)CCC1`, the pIC50 was 8.15.

In turn, `COc1ccc(-c2ccc(NC(=O)C3=C(C(=O)O)CCC3)c(F)c2)cc1` had a pIC50 of 5.77.

`O=C(O)C1=C(C(=O)Nc2ccc(-c3cccc(OC(F)(F)F)c3)cc2F)CCC1` showed a pIC50 of 6.55.

With `Cc1cc(-c2cccc(OC(F)(F)F)c2)ccc1NC(=O)C1=C(C(=O)O)CCC1`, the pIC50 was 6.82.

The compound `O=C(O)C1=C(C(=O)Nc2ccc(-c3cccc(OC(F)(F)F)c3)cc2C(F)(F)F)CCC1` gave a pIC50 of 6.08.

Compound `N#Cc1cc(-c2cccc(OC(F)(F)F)c2)ccc1NC(=O)C1=C(C(=O)O)CCC1` gave a pIC50 of 6.43.
